Structures are written as SMILES.

One experiment has as its system hypoxia-inducible endogenous VEGF expression. In words: Hypoxia-inducible endogenous VEGF expression ELISA in HeLa cells, dose-response EC50 (Table 3). It counts as cell-based, human. Particulars: Homo sapiens, HeLa, read-out: ELISA EC50 μM. The procedure, abridged: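 HeLa cells kept 24-48 h under hypoxia (1% O2, 5% CO2, nitrogen balance) with or without compound, e.g. seven concentrations; secreted VEGF in conditioned medium quantified by ELISA against a standard curve. Parallel Cell Titer Glo viability under identical conditions excludes cytotoxicity.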
A general note: In an ELISA, binding on a coated surface is turned into a signal by an enzyme label.
Turning to `O=C(Oc1ccc(Cl)cc1)N1CCc2c([nH]c3ccc(Cl)cc23)[C@@H]1c1ccc(Oc2ncc(CN3CCOCC3)s2)cc1` [Compound 1660], the EC50 (as a rule, the concentration that produces a half-maximal response) was < 0.008 µM.
With `CN1CCN(Cc2cnc(Oc3ccc([C@H]4c5[nH]c6ccc(Cl)cc6c5CCN4C(=O)Oc4ccc(Cl)cc4)cc3)s2)CC1` [Compound 1661], the EC50 was < 0.008 µM.
`CC1(C)C(=O)NC(=O)N1CCCOc1ccc(C2c3[nH]c4ccc(Cl)cc4c3CCN2C(=O)Oc2ccc(Cl)cc2)cc1` (stereo not drawn) [Compound 1671]: the EC50 was < 0.008 µM.
On the same count and under the same terms, with `O=C1CN(CCCOc2ccc(C3c4[nH]c5ccc(Cl)cc5c4CCN3C(=O)Oc3ccc(Cl)cc3)cc2)C(=O)N1` (stereo not drawn) [Compound 1672] the figure was < 0.008 µM; with `O=C(Oc1ccc(Cl)cc1)N1CCc2c([nH]c3ccc(Cl)cc23)[C@@H]1c1ccc(OC2CCN(CCN3CCOCC3)CC2)cc1` [Compound 1682], < 0.008 µM; with `O=C(OCCN1CCOCC1)N1CCC(Oc2ccc([C@H]3c4[nH]c5ccc(Cl)cc5c4CCN3C(=O)Oc3ccc(Cl)cc3)cc2)CC1` [Compound 1693], < 0.008 µM.
Consider `CN1CCC(Oc2ccc([C@H]3c4[nH]c5ccc(Cl)cc5c4CCN3C(=O)Oc3ccc(Cl)cc3)cc2)CC1` [Compound 1694], for which the EC50 is < 0.008 µM.
`O=C(Oc1ccc(Cl)cc1)N1CCc2c([nH]c3ccc(Cl)cc23)[C@@H]1c1ccc(OC2CCN(CC[C@H](O)CO)CC2)cc1` [Compound 1703]: the EC50 lay within 0.2 to 1 µM.
`O=C(Oc1ccc(Cl)cc1)N1CCc2c([nH]c3ccc(Cl)cc23)[C@@H]1c1ccc(OC2CCN(C[C@H](O)CO)CC2)cc1` [Compound 1704]: the EC50 fell in the range of 0.008 to 0.04 µM.

The same experiment, now with this note: Homo sapiens; HeLa cells, hypoxic conditions (1% O2), VEGF ELISA of conditioned media; read-out: ELISA EC50.
On to `CC(C)C(=O)NCC(O)CCOc1ccc([C@H]2c3[nH]c4ccc(Cl)cc4c3CCN2C(=O)Oc2ccc(Cl)cc2)cc1` (stereo partly drawn) [Compound 1626], for which the EC50 is < 0.008 µM.
As for `O=C(NCC(O)CCOc1ccc([C@H]2c3[nH]c4ccc(Cl)cc4c3CCN2C(=O)Oc2ccc(Cl)cc2)cc1)c1ccncc1` (stereo partly drawn) [Compound 1627], the EC50 is < 0.008 µM.
Same read-out and setting: with `O=C(NCC(O)CCOc1ccc([C@H]2c3[nH]c4ccc(Cl)cc4c3CCN2C(=O)Oc2ccc(Cl)cc2)cc1)c1cccnc1` (stereo partly drawn) [Compound 1628] the figure was < 0.008 µM; with `O=C(NCC(O)CCOc1ccc([C@H]2c3[nH]c4ccc(Cl)cc4c3CCN2C(=O)Oc2ccc(Cl)cc2)cc1)c1ccccn1` (stereo partly drawn) [Compound 1629], < 0.008 µM; with `COC(=O)NCC(O)CCOc1ccc([C@H]2c3[nH]c4ccc(Cl)cc4c3CCN2C(=O)Oc2ccc(Cl)cc2)cc1` (stereo partly drawn) [Compound 1635], < 0.008 µM.
With `CCOC(=O)NCC(O)CCOc1ccc([C@H]2c3[nH]c4ccc(Cl)cc4c3CCN2C(=O)Oc2ccc(Cl)cc2)cc1` (stereo partly drawn) [Compound 1636], the EC50 is < 0.008 µM.
In the case of `COCCOC(=O)NCC(O)CCOc1ccc([C@H]2c3[nH]c4ccc(Cl)cc4c3CCN2C(=O)Oc2ccc(Cl)cc2)cc1` (stereo partly drawn) [Compound 1637], the concentration for a half-maximal effect (EC50) was < 0.008 µM.
For `CCS(=O)(=O)NCC(O)CCOc1ccc([C@H]2c3[nH]c4ccc(Cl)cc4c3CCN2C(=O)Oc2ccc(Cl)cc2)cc1` (stereo partly drawn) [Compound 1638], the EC50 was < 0.008 µM.
Take `O=C(Oc1ccc(Cl)cc1)N1CCc2c([nH]c3ccc(Cl)cc23)[C@@H]1c1ccc(OCCC(O)CNS(=O)(=O)C2CC2)cc1` (stereo partly drawn) [Compound 1639]: the EC50 was < 0.008 µM.
For the compound `Cc1ccc(OC(=O)N2CCc3c([nH]c4ccc(Cl)cc34)[C@@H]2c2ccc(OCCC(O)CNC(=O)C(C)C)cc2)cc1` (stereo partly drawn) [Compound 1640], the EC50 is < 0.008 µM.
Regarding `Cc1ccc(OC(=O)N2CCc3c([nH]c4ccc(Cl)cc34)[C@@H]2c2ccc(OCCC(O)CNC(=O)c3ccccn3)cc2)cc1` (stereo partly drawn) [Compound 1641], the EC50 was < 0.008 µM.
On the same count and under the same terms, with `COC(=O)NCC(O)CCOc1ccc([C@H]2c3[nH]c4ccc(Cl)cc4c3CCN2C(=O)Oc2ccc(C)cc2)cc1` (stereo partly drawn) [Compound 1642] the figure was < 0.008 µM; with `CCOC(=O)NCC(O)CCOc1ccc([C@H]2c3[nH]c4ccc(Cl)cc4c3CCN2C(=O)Oc2ccc(C)cc2)cc1` (stereo partly drawn) [Compound 1643], < 0.008 µM; with `CCCOC(=O)NCC(O)CCOc1ccc([C@H]2c3[nH]c4ccc(Cl)cc4c3CCN2C(=O)Oc2ccc(C)cc2)cc1` (stereo partly drawn) [Compound 1644], < 0.008 µM.
As for `COCCOC(=O)NCC(O)CCOc1ccc([C@H]2c3[nH]c4ccc(Cl)cc4c3CCN2C(=O)Oc2ccc(C)cc2)cc1` (stereo partly drawn) [Compound 1645], the EC50 was < 0.008 µM.
`CCS(=O)(=O)NCC(O)CCOc1ccc([C@H]2c3[nH]c4ccc(Cl)cc4c3CCN2C(=O)Oc2ccc(C)cc2)cc1` (stereo partly drawn) [Compound 1646]: the EC50 is < 0.008 µM.
As for `Cc1ccc(OC(=O)N2CCc3c([nH]c4ccc(Cl)cc34)[C@@H]2c2ccc(OCCC(O)CNS(=O)(=O)C3CC3)cc2)cc1` (stereo partly drawn) [Compound 1647], the EC50 was < 0.008 µM.
`CS(=O)(=O)CCCOc1ccc([C@H]2c3[nH]c4ccc(Cl)cc4c3CCN2C(=O)Oc2ccc(Cl)cc2)cc1` [Compound 1648]: the EC50 is < 0.008 µM.
For `C[Si](C)(C)CCS(=O)(=O)N1CCC(Oc2ccc([C@H]3c4[nH]c5ccc(Cl)cc5c4CCN3C(=O)Oc3ccc(Cl)cc3)cc2)CC1` [Compound 1652], the EC50 is < 0.008 µM.
For `Cc1cnc(C)c(Oc2ccc([C@H]3c4[nH]c5ccc(Cl)cc5c4CCN3C(=O)Oc3ccc(Cl)cc3)cc2)n1` [Compound 1658], the EC50 is < 0.008 µM.
Regarding `Cc1nccnc1Oc1ccc([C@H]2c3[nH]c4ccc(Cl)cc4c3CCN2C(=O)Oc2ccc(Cl)cc2)cc1` [Compound 1659], the EC50 is < 0.008 µM.
The same measure, in the same setting: with `CCOC(=O)NC[C@H](O)COc1ccc([C@H]2c3[nH]c4ccc(Cl)cc4c3CCN2C(=O)Oc2ccc(F)cc2)cc1` [Compound 1663] the figure was < 0.008 µM.
For the compound `CCOC(=O)NC[C@@H](O)COc1ccc([C@H]2c3[nH]c4ccc(Cl)cc4c3CCN2C(=O)Oc2ccc(F)cc2)cc1` [Compound 1664], the EC50 was < 0.008 µM.
For `CCCOC(=O)NCC(O)CCOc1ccc([C@H]2c3[nH]c4ccc(Cl)cc4c3CCN2C(=O)Oc2ccc(Cl)cc2)cc1` (stereo partly drawn) [Compound 1666], the concentration giving a half-maximal response (EC50) was < 0.008 µM.
The same measure, in the same setting: with `CS(=O)(=O)NCC(O)CCOc1ccc([C@H]2c3[nH]c4ccc(Cl)cc4c3CCN2C(=O)Oc2ccc(Cl)cc2)cc1` (stereo partly drawn) [Compound 1667] the figure was < 0.008 µM.
Still for that read-out and setting: the figure for `Cc1ccc(OC(=O)N2CCc3c([nH]c4ccc(Cl)cc34)[C@@H]2c2ccc(OCCC(O)CNS(C)(=O)=O)cc2)cc1` (stereo partly drawn) [Compound 1668] is 0.008 to 0.04 µM; for `N#CCOc1ccc([C@H]2c3[nH]c4ccc(Cl)cc4c3CCN2C(=O)Oc2ccc(Cl)cc2)cc1` [Compound 1669] it is < 0.008 µM; for `CN1C(=O)CN(CCCOc2ccc(C3c4[nH]c5ccc(Cl)cc5c4CCN3C(=O)Oc3ccc(Cl)cc3)cc2)C1=O` (stereo not drawn) [Compound 1673] it is < 0.008 µM.
With `O=C(Oc1ccc(Cl)cc1)N1CCc2c([nH]c3ccc(Cl)cc23)[C@@H]1c1ccc(OCc2cn(C3OC(CO)C(O)C(O)C3O)nn2)cc1` (stereo partly drawn) [Compound 1674], the EC50 was in the range of 0.2 to 1 µM.
The same measure, in the same setting: the figure for `CC(=O)OCC1OC(n2cc(COc3ccc([C@H]4c5[nH]c6ccc(Cl)cc6c5CCN4C(=O)Oc4ccc(Cl)cc4)cc3)nn2)C(OC(C)=O)C(OC(C)=O)C1OC(C)=O` (stereo partly drawn) [Compound 1675] is 0.04 to 0.2 µM.
Consider `O=C(Oc1ccc(Cl)cc1)N1CCc2c([nH]c3ccc(Cl)cc23)[C@@H]1c1ccc(OCCc2cn(C3OC(CO)C(O)C(O)C3O)nn2)cc1` (stereo partly drawn) [Compound 1676], for which the EC50 is > 1 µM.
In the case of `CC(=O)OCC1OC(n2cc(CCOc3ccc([C@H]4c5[nH]c6ccc(Cl)cc6c5CCN4C(=O)Oc4ccc(Cl)cc4)cc3)nn2)C(OC(C)=O)C(OC(C)=O)C1OC(C)=O` (stereo partly drawn) [Compound 1677], the EC50 was in the range of 0.04 to 0.2 µM.
Regarding `O=C(Oc1ccc(Cl)cc1)N1CCc2c([nH]c3ccc(Cl)cc23)[C@@H]1c1ccc(OC2CCN(c3ncccn3)CC2)cc1` [Compound 1681], the EC50 was < 0.008 µM.
Same read-out and setting: the figure for `O=C(Oc1ccc(Cl)cc1)N1CCc2c([nH]c3ccc(Cl)cc23)[C@@H]1c1ccc(OC2OC(CO)C(O)C(O)C2O)cc1` (stereo partly drawn) [Compound 1695] is 0.2 to 1 µM; for `O=C(Oc1ccc(Cl)cc1)N1CCc2c([nH]c3ccc(Cl)cc23)[C@@H]1c1ccc(Oc2ccc(Cl)nn2)cc1` [Compound 1698] it is < 0.008 µM.
With `O=C(Oc1ccc(Cl)cc1)N1CCc2c([nH]c3ccc(Cl)cc23)[C@@H]1c1ccc(OC2COC2)cc1` [Compound 1701], the EC50 was < 0.008 µM.
For the compound `CS(=O)(=O)Cc1cnc(Oc2ccc([C@H]3c4[nH]c5ccc(Cl)cc5c4CCN3C(=O)Oc3ccc(Cl)cc3)cc2)s1` [Compound 1702], the EC50 was < 0.008 µM.

The subject of a further experiment is HT1080 cells. In words: Cell cycle analysis by propidium iodide flow cytometry in HT1080 cells (percent cells in S-phase, Table 24). Particulars: HT1080 cells, 100 nM, 18 hours, normoxic; DMSO control […]. The class given is cell-based, human. The protocol: Experimental Design. […] After treatment, cells were trypsinized, and stained with propidium iodide (PI) dye to measure DNA content of individual cells by flow cytometry. Output comprised histograms showing relative DNA content in 10,000 cells.
While compounds which cause greater than 20% of the cells to accumulate in S-phase at 100 nM are considered active, a larger percentage of cells may be accumulated in S-phase at lower doses depending on the Compound, as shown in FIG. 12 for example.
In general terms: Flow cytometry measures light scatter and fluorescence of single cells or particles in a stream.
In the case of `COc1ccc(C2c3[nH]c4ccc(Cl)cc4c3CCN2C(=O)Oc2ccc(Cl)cc2)cc1` (stereo not drawn), the “% Cells In S-Phase” value is reported as 15.3%.
In the case of `O=C(Oc1ccc(F)cc1)N1CCc2c([nH]c3ccc(Cl)cc23)[C@@H]1c1ccc(OCCCn2ccnn2)cc1`, the “% Cells In S-Phase” value turned out to be 25.7%.
Consider `COc1ccc(OC(=O)N2CCc3c([nH]c4ccc(Br)cc34)[C@H]2c2ccc(Cl)cc2)cc1`, for which the “% Cells In S-Phase” value worked out at 16.5%.
For `COc1ccc([C@@H]2c3[nH]c4ccc(Cl)cc4c3CCN2C(=O)Oc2ccc(Cl)cc2)cc1`, the “% Cells In S-Phase” value is recorded as 16.8%.
On the same count and under the same terms, the figure for `O=C(Oc1ccc(F)cc1)N1CCc2c([nH]c3ccc(Cl)cc23)[C@H]1c1ccc(OCCCn2ccnn2)cc1` is 16.4%; for `O=C(Oc1ccc(Cl)cc1)N1CCc2c([nH]c3ccc(Cl)cc23)C1c1ccc(OCCN2CCCCC2)cc1` (stereo not drawn) it is 16.8%.
With `C=CCOc1ccc([C@@H]2c3[nH]c4ccc(Cl)cc4c3CCN2C(=O)Oc2ccc(Cl)cc2)cc1`, the “% Cells In S-Phase” value is 17.9%.
For the compound `COc1ccc([C@H]2c3[nH]c4ccc(Cl)cc4c3CCN2C(=O)Oc2ccc(Cl)cc2)cc1` [drawing 526], the “% Cells In S-Phase” value is on record as 26.1%.

For the origin of these results see US20120157401A1, “METHODS FOR TREATING NEUROFIBROMATOSIS” (PTC Therapeutics, Inc., priority 2009, published 2012).
